Laboratory results published in patent US20240066136A1, “MODIFIED PROTEINS AND PROTEIN DEGRADERS” (Cullgen (Shanghai), Inc., priority 2020, published 2024).

Tests used:
CDK6 = CDK6 (Homo sapiens (Human), UniProt Q00534); assay: Immunoblot of CDK6 protein in Calu-1 cells; type: cell-based; details: 1 μM, 16 hours after administration
Protocol: (§1) Additional heterobifunctional compounds were designed and tested for their ability to target and degrade another two target proteins, CDK4 and CDK6. Calu-1 cells that express CDK4/6 proteins were treated with heterobifunctional compounds disclosed herein (D-44 to D-49) at indicated concentrations for 16 hours. Cells were collected, lysed and subject to immunoblotting using an antibody specific to CDK4, CDK6 or phosphorylated Rb proteins. Tubulin was included as the loading control. DMSO treatment was used as the negative control. […] In addition, Calu-1 cells were treated with 1 μM D-48 or D-49 for an indicated period of time. Subsequently, changes in CDK4 and CDK6 protein levels were measured by immunoblotting. […] These experiments highlight the ability of DDB1 binder derived heterobifunctional compounds to degrade multiple different target proteins, including but not limited to epigenetic target proteins, such as CBP and p300, and kinases, such as CDK4 and CDK6.

Human DDB1 = Human DDB1 (Homo sapiens (Human), UniProt Q16531); assay: Surface plasmon resonance (SPR) binding assay to immobilized His-DDB1; details: SPR, DDB1 binding moieties with linkers and/or target protein binding moiety; read-out: Binding (Kd)
Method in brief: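 Baculovirus-expressed His-DDB1 (High5 cells) amine-coupled to 11,000–13,000 RU on a CM5 chip; compounds injected in multi-cycle format without regeneration at 25° C in HBS-EP pH 7.4 (120 s association/dissociation). Double-referenced, solvent-corrected data fit to steady-state affinity model for KD.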

CDK4 = CDK4 (Homo sapiens (Human), UniProt P11802); assay: Immunoblot of CDK4 protein in Calu-1 cells; type: cell-based; details: 1 μM, 16 hours after administration
Protocol: as §1

LNCaP cells = assay: LNCaP cell viability (CellTiter-Glo); type: cell-based; details: three days
Protocol: LNCaP cells seeded in 96-well plates were treated with 10 μM GNE-781 or selected heterobifunctional compounds, following a 12-point 3-fold serial dilution. Three days after treatment, cell viability was determined using the CellTiter-Glo Kit (Promega). Cell viability was normalized to the mean values of 3 replicates of untreated cells. Dose-dependent response was analyzed following the least-squares non-linear regression method using the GraphPad Prism software.

P300 [1] = target: T1, P300 (Homo sapiens (Human), UniProt Q09472); assay: Immunoblot of P300 in Calu-1 cells with co-administered proteasome, neddylation or DDB1-ligand competitor; type: cell-based
From the text: The heterobifunctional compound-mediated p300 and CBP degradation was dependent on the ubiquitin-proteasome system and cullin E3 ligase. […] The binding with DDB1 also played a role in the heterobifunctional compounds ability to induce degradation of P300 and CBP proteins.

CBP = CBP (Homo sapiens (Human), UniProt Q92793); assay: Immunoblot of CBP protein in LNCaP cells after compound treatment; type: cell-based
Protocol: (§2) Experiments were performed to see if heterobifunctional compounds as described herein could degrade target proteins. Specific exemplary heterobifunctional compounds were characterized in LNCaP and Calu-1 cells. LNCaP cells that express P300/CBP proteins were treated with heterobifunctional compounds disclosed herein (D-2, D-13, or D-7) at indicated concentrations for 8 hours. Cells were collected, lysed and subject to immunoblotting using an antibody specific to P300 or CBP proteins. Vinculin was included as the loading control. DMSO treatment was used as the negative control. […] In addition, LNCaP cells were treated with 500 nM of D-2, or D-13 for indicated period of time. Subsequently, changes in P300 and CBP protein levels were measured by immunoblotting.

P300 [2] = target: T1, P300; assay: Immunoblot of P300 protein in LNCaP cells after compound treatment; type: cell-based
Protocol: as §2

[3] = indicated concentrations, 8 hours, immunoblot

T1 sequence (Q09472 whole entry): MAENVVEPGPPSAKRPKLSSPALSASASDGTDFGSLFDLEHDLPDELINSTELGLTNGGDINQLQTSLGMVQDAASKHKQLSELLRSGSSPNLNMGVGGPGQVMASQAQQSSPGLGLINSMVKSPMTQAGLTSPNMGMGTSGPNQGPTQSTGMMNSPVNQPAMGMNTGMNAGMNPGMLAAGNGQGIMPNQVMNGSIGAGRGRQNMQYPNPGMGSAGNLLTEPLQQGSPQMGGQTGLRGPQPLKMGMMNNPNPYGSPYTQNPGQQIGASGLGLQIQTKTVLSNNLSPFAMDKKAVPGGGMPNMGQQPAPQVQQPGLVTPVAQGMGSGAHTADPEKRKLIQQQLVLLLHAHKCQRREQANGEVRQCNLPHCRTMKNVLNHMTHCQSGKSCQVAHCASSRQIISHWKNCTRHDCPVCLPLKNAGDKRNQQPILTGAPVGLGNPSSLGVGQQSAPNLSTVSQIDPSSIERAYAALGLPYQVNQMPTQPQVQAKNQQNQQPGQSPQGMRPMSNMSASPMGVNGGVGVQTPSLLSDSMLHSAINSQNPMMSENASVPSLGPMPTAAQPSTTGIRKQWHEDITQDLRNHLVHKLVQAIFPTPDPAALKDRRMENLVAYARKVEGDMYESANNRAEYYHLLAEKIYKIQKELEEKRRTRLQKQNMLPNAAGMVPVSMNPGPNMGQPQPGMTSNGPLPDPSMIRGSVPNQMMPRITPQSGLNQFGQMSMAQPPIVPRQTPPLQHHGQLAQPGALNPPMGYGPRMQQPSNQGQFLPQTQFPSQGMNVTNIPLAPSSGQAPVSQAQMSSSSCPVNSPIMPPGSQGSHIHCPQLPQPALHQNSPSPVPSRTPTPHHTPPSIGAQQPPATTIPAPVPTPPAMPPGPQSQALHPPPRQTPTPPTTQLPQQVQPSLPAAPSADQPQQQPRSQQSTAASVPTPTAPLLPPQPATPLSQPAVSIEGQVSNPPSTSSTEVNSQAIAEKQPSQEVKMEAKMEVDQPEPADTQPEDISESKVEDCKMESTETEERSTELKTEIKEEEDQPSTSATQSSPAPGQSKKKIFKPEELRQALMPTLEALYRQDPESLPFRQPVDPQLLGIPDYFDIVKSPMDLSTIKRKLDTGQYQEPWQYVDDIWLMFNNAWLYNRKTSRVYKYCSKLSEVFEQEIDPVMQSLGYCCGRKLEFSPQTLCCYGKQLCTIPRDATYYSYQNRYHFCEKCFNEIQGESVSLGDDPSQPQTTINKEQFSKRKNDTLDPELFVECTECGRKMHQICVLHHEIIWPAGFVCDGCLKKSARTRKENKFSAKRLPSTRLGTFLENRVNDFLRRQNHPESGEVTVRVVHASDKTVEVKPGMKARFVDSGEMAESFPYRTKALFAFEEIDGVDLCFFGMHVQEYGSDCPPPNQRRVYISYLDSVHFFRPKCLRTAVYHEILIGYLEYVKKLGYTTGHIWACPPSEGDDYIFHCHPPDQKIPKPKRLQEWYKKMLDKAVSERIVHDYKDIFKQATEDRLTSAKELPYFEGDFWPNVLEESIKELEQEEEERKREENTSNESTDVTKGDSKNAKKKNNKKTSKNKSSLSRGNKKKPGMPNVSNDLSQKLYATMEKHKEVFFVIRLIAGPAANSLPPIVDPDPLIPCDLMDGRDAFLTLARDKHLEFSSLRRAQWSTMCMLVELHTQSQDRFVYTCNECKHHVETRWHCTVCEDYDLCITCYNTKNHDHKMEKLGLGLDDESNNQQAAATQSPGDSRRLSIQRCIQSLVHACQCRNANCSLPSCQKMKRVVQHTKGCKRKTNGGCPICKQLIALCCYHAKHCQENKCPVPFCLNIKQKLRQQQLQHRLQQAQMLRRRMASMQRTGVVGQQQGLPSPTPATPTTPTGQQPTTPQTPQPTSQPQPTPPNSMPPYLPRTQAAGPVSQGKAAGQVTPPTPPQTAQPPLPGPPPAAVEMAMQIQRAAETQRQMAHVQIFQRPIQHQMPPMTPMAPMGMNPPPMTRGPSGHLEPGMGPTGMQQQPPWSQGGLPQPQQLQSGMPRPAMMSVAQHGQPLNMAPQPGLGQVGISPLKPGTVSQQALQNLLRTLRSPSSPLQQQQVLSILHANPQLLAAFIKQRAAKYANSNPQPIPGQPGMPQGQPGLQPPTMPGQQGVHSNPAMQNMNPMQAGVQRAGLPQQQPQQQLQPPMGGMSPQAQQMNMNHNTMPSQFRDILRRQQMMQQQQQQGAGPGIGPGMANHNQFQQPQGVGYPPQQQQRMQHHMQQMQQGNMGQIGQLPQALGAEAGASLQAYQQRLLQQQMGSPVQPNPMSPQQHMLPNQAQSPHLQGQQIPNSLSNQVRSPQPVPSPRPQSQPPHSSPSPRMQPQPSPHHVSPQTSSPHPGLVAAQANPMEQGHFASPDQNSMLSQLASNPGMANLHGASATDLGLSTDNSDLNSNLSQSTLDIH
Human DDB1, sequence (Q16531 whole entry): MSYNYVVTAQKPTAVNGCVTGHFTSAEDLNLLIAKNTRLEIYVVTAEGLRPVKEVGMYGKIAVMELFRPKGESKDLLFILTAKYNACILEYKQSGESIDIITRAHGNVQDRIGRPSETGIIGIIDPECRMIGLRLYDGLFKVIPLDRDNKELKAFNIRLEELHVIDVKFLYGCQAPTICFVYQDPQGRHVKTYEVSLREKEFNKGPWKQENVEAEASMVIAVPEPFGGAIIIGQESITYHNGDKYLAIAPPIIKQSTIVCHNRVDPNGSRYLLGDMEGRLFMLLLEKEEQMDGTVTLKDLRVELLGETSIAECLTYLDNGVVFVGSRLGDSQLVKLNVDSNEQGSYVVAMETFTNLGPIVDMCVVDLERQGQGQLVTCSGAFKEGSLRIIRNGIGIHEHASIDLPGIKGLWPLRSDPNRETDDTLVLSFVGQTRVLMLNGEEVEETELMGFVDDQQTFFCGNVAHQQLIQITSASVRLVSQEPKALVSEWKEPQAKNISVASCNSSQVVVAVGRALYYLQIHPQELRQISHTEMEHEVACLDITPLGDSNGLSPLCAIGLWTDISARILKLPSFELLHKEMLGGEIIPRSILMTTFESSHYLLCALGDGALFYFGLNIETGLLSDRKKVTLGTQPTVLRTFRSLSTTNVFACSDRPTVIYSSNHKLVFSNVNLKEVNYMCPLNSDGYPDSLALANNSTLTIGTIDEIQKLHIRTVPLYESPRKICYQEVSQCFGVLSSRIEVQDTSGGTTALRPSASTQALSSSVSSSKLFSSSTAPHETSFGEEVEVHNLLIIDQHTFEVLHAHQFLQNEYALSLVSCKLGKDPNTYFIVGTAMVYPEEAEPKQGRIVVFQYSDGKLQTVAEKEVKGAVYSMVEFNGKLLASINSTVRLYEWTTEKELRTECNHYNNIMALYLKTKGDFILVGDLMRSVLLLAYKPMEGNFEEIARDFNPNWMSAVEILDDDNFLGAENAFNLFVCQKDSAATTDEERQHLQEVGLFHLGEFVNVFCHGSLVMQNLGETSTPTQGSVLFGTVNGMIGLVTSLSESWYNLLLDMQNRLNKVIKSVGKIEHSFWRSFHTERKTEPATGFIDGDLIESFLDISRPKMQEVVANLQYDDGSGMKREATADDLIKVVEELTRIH
CDK6, sequence (Q00534 whole entry): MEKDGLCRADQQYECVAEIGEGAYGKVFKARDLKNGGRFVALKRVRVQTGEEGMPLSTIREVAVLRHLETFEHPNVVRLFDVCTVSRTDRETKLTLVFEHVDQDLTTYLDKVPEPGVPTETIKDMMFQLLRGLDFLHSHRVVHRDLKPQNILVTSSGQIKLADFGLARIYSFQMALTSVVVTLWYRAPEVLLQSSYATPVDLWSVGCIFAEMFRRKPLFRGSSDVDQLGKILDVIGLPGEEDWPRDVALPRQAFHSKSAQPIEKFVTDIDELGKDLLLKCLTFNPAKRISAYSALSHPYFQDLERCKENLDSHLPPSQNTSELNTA
CDK4, sequence (P11802 whole entry): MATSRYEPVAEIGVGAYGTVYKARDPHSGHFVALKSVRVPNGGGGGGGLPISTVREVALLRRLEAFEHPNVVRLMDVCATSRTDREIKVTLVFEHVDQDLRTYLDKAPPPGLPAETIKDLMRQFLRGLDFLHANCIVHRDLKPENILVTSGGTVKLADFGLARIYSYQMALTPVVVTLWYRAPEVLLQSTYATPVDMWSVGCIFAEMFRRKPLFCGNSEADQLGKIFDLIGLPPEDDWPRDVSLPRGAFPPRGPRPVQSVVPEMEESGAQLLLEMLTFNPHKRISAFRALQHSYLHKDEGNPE

degradation of CDK6 (CDK6) | Kd (Human DDB1) | degradation of CDK4 (CDK4) | compound-induced degradation under co-administration of MG-132 or bortezomib (BTZ), or MLN4924 (P300 [1]) | time at which significant degradation of CBP was detected (CBP; 500 nM, time course) | time at which significant degradation of P300 was detected (P300 [2]; 500 nM, time course) | Structure (SMILES) | viability of LNCaP cells (LNCaP cells; 10 μM top, 12-point 3-fold serial dilution) | inhibitory effects on the growth of LNCaP cells compared to GNE-781 (LNCaP cells) | CBP protein levels (CBP; [3]) | P300 protein levels (P300 [2]; [3])
Significant degradation | < 20 µM | Significant degradation |  |  |  | CC(=O)Nc1cc(NCCOCCOCCOCCOCCOCCOCCNC(=O)CN2CCN(c3ccc(Nc4ncc5c(C)c(C(C)=O)c(=O)n(C6CCCC6)c5n4)nc3)CC2)ccc1C(=O)Nc1nc(C)c([N+](=O)[O-])s1 [D-49, 2-Acetamido-4-((1-(4-(6-((6-acetyl-8-cyclopentyl-5-methyl-7-oxo-7,8-dihydropyrido[2,3-d]pyrimidin-2-yl)amino)pyridin-3-yl)piperazin-1-yl)-2-oxo-6,9,12,15,18,21-hexaoxa-3-azatricosan-23-yl)amino)-N-(4-methyl-5-nitrothiazol-2-yl)benzamide] |  |  |  | 
 | 20 to 100 µM |  | compromised | 2 to 4 h | 2 to 4 h | CC(=O)Nc1cc(NCCCCNC(=O)CN2CCC(n3nc(N4CCCc5cc(-c6cnn(C)c6)c(C(F)F)cc54)c4c3CCN(C(C)=O)C4)CC2)ccc1C(=O)Nc1nc(C)c([N+](=O)[O-])s1 [D-2, 2-Acetamido-4-((4-(2-(4-(5-acetyl-3-(7-(difluoromethyl)-6-(1-methyl-1H-pyrazol-4-yl)-3,4-dihydroquinolin-1 (2H)-yl)-4,5,6,7-tetrahydro-1H-pyrazolo[4,3-c]pyridin-1-yl)piperidin-1-yl)acetamido)butyl)amino)-N-(4-methyl-5-nitrothiazol-2-yl)benzamide] | dose-dependently suppressed viability of LNCaP cells | more potent inhibitory effects | significantly decreased in a concentration-dependent manner | significantly decreased in a concentration-dependent manner
Significant degradation | < 20 µM | Significant degradation |  |  |  | CC(=O)Nc1cc(NCCOCCOCCOCCOCCOCCNC(=O)CN2CCN(c3ccc(Nc4ncc5c(C)c(C(C)=O)c(=O)n(C6CCCC6)c5n4)nc3)CC2)ccc1C(=O)Nc1nc(C)c([N+](=O)[O-])s1 [D-48, 2-Acetamido-4-((1-(4-(6-((6-acetyl-8-cyclopentyl-5-methyl-7-oxo-7,8-dihydropyrido[2,3-d]pyrimidin-2-yl)amino)pyridin-3-yl)piperazin-1-yl)-2-oxo-6,9,12,15,18-pentaoxa-3-azaicosan-20-yl)amino)-N-(4-methyl-5-nitrothiazol-2-yl)benzamide] |  |  |  | 
